# Measured values: US10799518B2, “Use of agonists of formyl peptide receptor 2 for treating dermatological diseases” (Allergan, Inc., priority 2013, dated 2020)
# Target: human FPR2 receptor (Homo sapiens (Human), UniProt P25090)
# Assay: FLIPR Ca+2 response in HEK-Gα16 cells stably expressing the human FPR2 receptor
# Assay type: cell-based
# Conditions: Table 4; value in parentheses, given mostly as fraction
# Protocol: HEK-Gα16 cells stably expressing the human FPR2 receptor was utilized. Cells were plated into 384-well poly-D-lysine coated plates at a density of 18,000 cells per well one day prior to use. The growth media was DMEM medium supplemented with 10% fetal bovine serum (FBS), 1% antibiotic-antimycotic, 50 μg/ml hygromycin, and 400 μg/ml geneticin. On the day of the experiment, the cells were washed twice with Hank's Balanced Salt Solution supplemented with 20 mM HEPES (HBSS/hepes buffer). The cells were then dye loaded with 2 μM Fluo-4 diluted in the HBSS/Hepes buffer and incubated at 37° C. for 40 minutes. Extracellular dye was removed by washing the cell plates four times prior to placing the plates in the FLIPR (Fluorometric Imaging Plate Reader, Molecular Devices). Ligands were diluted in HBSS/Hepes buffer and prepared in 384-well microplates. Data for Ca^+2 responses were obtained in relative fluorescence units.
# Sequence of human FPR2 receptor (P25090 whole entry): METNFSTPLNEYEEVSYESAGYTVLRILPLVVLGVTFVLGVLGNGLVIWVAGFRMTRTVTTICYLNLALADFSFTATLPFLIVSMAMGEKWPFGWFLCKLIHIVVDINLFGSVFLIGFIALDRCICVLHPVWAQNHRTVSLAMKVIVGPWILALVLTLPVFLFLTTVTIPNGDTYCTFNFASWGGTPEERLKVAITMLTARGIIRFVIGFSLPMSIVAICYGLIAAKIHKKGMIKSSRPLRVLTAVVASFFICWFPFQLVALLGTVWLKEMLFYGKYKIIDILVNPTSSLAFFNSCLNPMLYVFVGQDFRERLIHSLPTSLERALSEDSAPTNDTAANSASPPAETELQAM
row,SMILES,FPR2 (% eff) [%]
1,"CCOP(=O)(CNC(=O)[C@H](CC(C)C)NC(=O)Nc1ccc(C(F)(F)F)cc1)OCC [Compound 134, diethyl ({[(2S)-4-methyl-2-({[4-(trifluoromethyl)phenyl]carbamoyl}amino)pentanoyl]amino}methyl)phosphonate]",97
2,"CCOP(=O)(O)CNC(=O)[C@H](CC(C)C)NC(=O)Nc1ccc(C(F)(F)F)cc1 [Compound 135, ethyl hydrogen ({[(2S)-4-methyl-2-({[4-(trifluoromethyl)phenyl]carbamoyl}amino)pentanoyl]amino}methyl)phosphonate]",91
3,CCOP(=O)(CNC(=O)[C@H](CC(C)C)NC(=O)Nc1ccc(SC)cc1)OCC [Compound 138],91
4,"CCOP(=O)(CCNC(=O)CC1(C(C)C)NC(=O)N(NC(=O)Nc2ccc(Br)cc2)C1=O)OCC (stereo not drawn) [Compound 152, diethyl [2-({[1-{[(4-bromophenyl)carbamoyl]amino}-2,5-dioxo-4-(propan-2-yl)imidazolidin-4-yl]acetyl}amino)ethyl] phosphonate]",100

# Target: FPRL-1 (Homo sapiens (Human), UniProt P25090)
# Assay: FPRL-1 Ga16-CHO EC50 (efficacy)
# Assay type: cell-based
# Conditions: Table 3; value in parentheses
# Sequence of FPRL-1 (P25090 whole entry): as above
row,SMILES,FPRL-1 Ga16-CHO (efficacy)
1,"CCC1(CC)NC(=O)N(CC(=O)Nc2ccc(F)cc2)C1=O [2-(4,4-diethyl-2,5-dioxoimidazolidin-1-yl)-N-(4-fluorophenyl)acetamide]",0.67
2,"O=C(CN1C(=O)C2CC=CCC2C1=O)Nc1ccc(Br)cc1 (stereo not drawn) [N-(4-bromophenyl)-1,3,3a,4,7,7a-hexahydro-1,3-dioxo-2H-isoindole-2-acetamide]",0.98
3,"O=C(CN1C(=O)C2C3C=CC(C3)C2C1=O)Nc1ccc(Br)cc1 (stereo not drawn) [N-(4-bromophenyl)-1,3,3a,4,7,7a-hexahydro-1,3-dioxo-4,7-methano-2H-isoindole-2-acetamide]",0.90
4,"O=C(CN1C(=O)NC2(CCCC2)C1=O)Nc1ccc(Br)cc1 [N-(4-bromophenyl)-2-(2,4-dioxo-1,3-diazaspiro[4.4]non-3-yl)acetamide]",0.96
5,"O=C(CN1C(=O)NC2(CCCCC2)C1=O)Nc1ccc(Br)cc1 [N-(4-bromophenyl)-2-(2,4-dioxo-1,3-diazaspiro[4.5]dec-3-yl)acetamide]",0.89
6,"O=C(CN1C(=O)NC2(CCCCCC2)C1=O)Nc1ccc(Br)cc1 [N-(4-bromophenyl)-2-(2,4-dioxo-1,3-diazaspiro[4.6]undec-3-yl)acetamide]",0.96
7,"CCCC1(CCC)NC(=O)N(CC(=O)Nc2ccc(Br)cc2)C1=O [N-(4-bromophenyl)-2-(2,5-dioxo-4,4-dipropylimidazolidin-1-yl)acetamide]",0.98
8,"CCC1(CC)NC(=O)N(CC(=O)Nc2ccc(Br)cc2)C1=O [N-(4-bromophenyl)-2-(4,4-diethyl-2,5-dioxoimidazolidin-1-yl)acetamide]",0.98
9,"CC1(C)NC(=O)N(CC(=O)Nc2ccc(Br)cc2)C1=O [N-(4-bromophenyl)-2-(4,4-dimethyl-2,5-dioxoimidazolidin-1-yl)acetamide]",0.94
10,"CC1(C2CC2)NC(=O)N(CC(=O)Nc2ccc(Br)cc2)C1=O (stereo not drawn) [N-(4-bromophenyl)-2-(4-cyclopropyl-4-methyl-2,5-dioxoimidazolidin-1-yl)acetamide]",0.84
11,"CCC1(c2ccccc2)NC(=O)N(CC(=O)Nc2ccc(Br)cc2)C1=O (stereo not drawn) [N-(4-bromophenyl)-2-(4-ethyl-2,5-dioxo-4-phenylimidazolidin-1-yl)acetamide]",0.83
12,"CCC1(C)NC(=O)N(CC(=O)Nc2ccc(Br)cc2)C1=O (stereo not drawn) [N-(4-bromophenyl)-2-(4-ethyl-4-methyl-2,5-dioxoimidazolidin-1-yl)acetamide]",1.0
13,"CC1(CCc2ccccc2)NC(=O)N(CC(=O)Nc2ccc(Br)cc2)C1=O (stereo not drawn) [N-(4-bromophenyl)-2-[4-methyl-2,5-dioxo-4-(2-phenylethyl)imidazolidin-1-yl]acetamide]",0.88
14,"CCC1(CC)NC(=O)N(CC(=O)Nc2ccc(Cl)cc2)C1=O [N-(4-chlorophenyl)-2-(4,4-diethyl-2,5-dioxoimidazolidin-l-yl)acetamide]",0.79

# Test system: LL-37-induced inflammation in mouse ears
# Assay: LL37-induced model of rosacea in mice (ear thickness)
# Assay type: in vivo
# Conditions: topical to ears; p<0.05 vs. vehicle; FIG. 2
# Protocol: LL37-Induced Model of Rosacea in Mice:
# Prior to dosing, animals are lightly anaesthetized with isofluorane and baseline right and left ear thickness measurements are made with a digital caliper (Mitutoyo 293-340). At t=−1 hrs, animals are lightly anaesthetized with isoflurane to allow topical application (dorsal side) of 10 μL of FPR2 agonist formulated in a vehicle consisting of PBS:ethanol (50:50), or vehicle control to both ears. At t=0 hr, mice are re-anaesthetized. Following ear thickness measurements, 20 uL of LL-37 (100 μM) is injected into the right ear, while PBS is injected into the left ear. Additional ear thickness measurements are taken at t=3 and 6 hours. After the last time point, mice are euthanized by CO2 inhalation and ears collected for additional analyses.
row,SMILES,inflammation induced by LL-37 in mouse ears
1,"CC[C@H](C)[C@H](NC(=O)Nc1ccc(Br)cc1)C(=O)NCC(=O)O [Compound 3, {[(2S,3S)-2-{[(4-bromophenyl)carbamoyl]amino}-3-methylpentanoyl]amino} acetic acid]",Anti-inflammatory activity
2,"CC(C)C[C@H](NC(=O)Nc1ccc(Br)cc1F)C(=O)NCC(=O)O [Compound 7, {[(2S)-2-{[(4-bromo-2-fluorophenyl)carbamoyl]amino}-4-methylpentanoyl]amino} acetic acid]",Anti-inflammatory activity
3,"CC(C)C[C@H](NC(=O)Nc1ccc(Br)cc1)C(=O)NCC(=O)O [Compound 8, {[(2S)-2-{[(4-bromophenyl)carbamoyl]amino}-4-methylpentanoyl]amino} acetic acid]",Anti-inflammatory activity
